Source: patent publication US20210093637A1, “TOPICAL OINTMENT FORMULATIONS OF PDE-4 INHIBITOR AND THEIR USE IN TREATING SKIN CONDITIONS” (Dermavant Sciences GmbH, priority 2017, published 2021)
Where “and” joins values, the source holds several entries; their conditions need not be identical. Equal values may be shown once.

Assays:
[1] = Phase 2 study RVT-501-2001, plasma concentrations of RVT-501 and M11; type: in vivo, human
Description: During the treatment period, subjects applied RVT-501 ointment or vehicle to affected areas twice daily (BID) for 28 days. Subjects returned to the clinic at Day 4 for evaluation, and again at Weeks 1, 2, 3, and 4 for safety and efficacy assessments. Pharmacokinetic samples were collected at Weeks 1 and 4. On clinic visit days (except on the Day 4 visit), subjects applied study drug on-site while under the supervision of site personnel, after efficacy assessments had been completed.
Statistical Methods: Efficacy Analyses: A sample size and power sensitivity analysis was conducted for the efficacy endpoints. Assuming an effect size (defined as difference of mean change from baseline EASI score between treatment groups relative to pooled standard deviation) of 0.7, a sample size of 50 subjects in an active arm and 50 subjects in the combined placebo will provide 93% power at an alpha level of 0.05 (2-sided), based on a 2-sided t-test. The sample size will also allow a difference of 33% between placebo and active treatment in a responder endpoint to be detected with 90% power and a 0.05 significance level assuming the proportion of responders in the placebo group is <=20%. Efficacy endpoints will be summarized and listed by treatment for each age group and both age groups combined; The between-treatment comparisons (active vs placebo and between active dose groups) for continuous efficacy variables will be performed using an analysis of covariance (ANCOVA) model. The between treatment comparisons for the proportion of responders will be compared using a CMH or Chi-square test. Safety Analyses: Adverse events will be mapped to a Medical Dictionary for Regulatory Activities (MedDRA). Treatment emergent adverse events will be summarized by treatment, preferred term and system organ classification. Descriptive summaries of vital signs, ECG parameters, and clinical laboratory results will be presented by study visit and treatment group. Pharmacokinetic Analyses: RVT-501 and M11 plasma concentrations will be listed by subject, treatment, and time; and will be summarized by treatment and time. The number and percent of subjects with a measurable concentration of either analyte at each time point and any time during the study will be provided.
Analysis Populations: Four analysis populations were used for this study. The Safety population, consisting of all subjects enrolled into the study who received study drug, was used for the safety analyses. The intent-to-treat (ITT) population, defined as all subjects randomized to treatment, was the primary population used for the efficacy analyses. The per protocol (PP) population included subjects who applied at least 50% of the doses. The PP population was used for confirmatory analysis of the efficacy variables. The PK population included all subjects who underwent plasma PK sampling and had at least one evaluable PK sample (a concentration reported as below the lower limit of quantitation (LLQ) of the assay was considered an evaluable PK sample).
Pharmacokinetics: Blood samples for PK analysis of RVT-501 and the M11 metabolite will be collected at the time points indicated in Table 1. The actual date and time of each blood sample collection will be recorded as well as the date and time of the last dose of study mediation. The timing of PK samples may be altered and/or PK samples may be obtained at additional time points to ensure thorough PK monitoring.
Pharmacokinetics summary: PK samples were collected pre-dose at Weeks 1 and 4, and 2-4 hrs post-dose at Week 4. […] Three patients had detectable M11 exposure with the highest value at 1.60 ng/mL.

[2] = Open-label Phase 1b study in pediatric patients (Example 7), plasma concentrations of RVT-501 and M11; type: in vivo, human; conditions: for subjects with measurable concentrations in plasma at one or more time points: PK Set n=25, LLOQ 0.25 ng/mL
Description: During the Treatment Phase, subjects, their parent(s), or caregiver applied RVT-501 0.5% ointment to affected areas twice daily for 28 days. Subjects returned to the clinic at Week 1, Week 4, and follow-up for study assessments. On Day 1 and Weeks 2 and 3, subjects were contacted by phone to confirm their status, including any adverse events (AEs) and changes in concomitant medications.
Primary Endpoints: Frequency and severity of AE (local and systemic), Laboratory values, Vital signs, Plasma concentrations of RVT-501 and M11 metabolite.
Analysis Populations: All subjects enrolled in the study who had at least one application of study drug were included in the Safety Set. This was the population for the safety and efficacy analyses. The PK Set included all subjects who underwent plasma PK sampling and had evaluable PK assay results.
Pharmacokinetic Analyses: RVT-501 and M11 were measured in plasma by a validated assay. The number and percent of subjects with measurable concentration at each time point and at any time during the study were summarized. RVT-501 and M11 concentrations were summarized descriptively at each collection time point.

[3] = Blood-to-plasma partition (B/P); type: in vitro ADME, human; conditions: for average B/P of two levels: 3 and 160 ng/mL; for blood plasma ratio at 3 ng/mL / blood plasma ratio at 160 ng/mL: human, whole blood and plasma prepared from it
Protocol: Blood-to-plasma partition and shelf-life of refrigerated blood: The blood-to-plasma partition (B/P) of E6005 and M11 was determined by assaying concentrations of E6005 and M11 in whole blood samples and plasma samples prepared from blood samples by centrifugation. […] The average B/P of two levels was 0.679 for E6005 and 0.584 for M11.

[4] = Clinical application of DBS assay: blood levels in pediatric trial of E6005 ointment; type: in vivo, human; conditions: pediatric subjects; E6005 ointment 0.05% or 0.2% twice a day for two weeks; 147 DBS samples
Protocol: Clinical application: A clinical study was performed in which E6005 ointment containing 0.05% or 0.2% was topically applied twice a day for two weeks to pediatric subjects. Blood samples were obtained at 1- and 2-week post-dose as well as subsequent 7-day follow-up period in collection tubes with K2-EDTA as an anticoagulant, thereafter put on ice as soon as possible to reduce possible conversion of E6005 to M11. Details on sample handling at the clinics were clarified in a lab manual; a 25 μL aliquot blood sample was spotted onto the center of circle of DBS cards (four replicates per sample) at clinics, then dried at room temperature for at least 2 h. DBS cards with desiccants were placed in zip lock bags and stored frozen below −20° C. until shipment to a bioanalytical laboratory. Samples were stored below −15° C. at the laboratory until they were subjected to sample processing for the determination of E6005 and M11 concentrations in DBS.

[5] = Week 1 Hour 3, RVT-501 0.5% (N = 25)
[6] = Week 1 Hour 7, RVT-501 0.5% (N = 25)
[7] = Week 1 Pre-Dose, RVT-501 0.5% (N = 25)
[8] = Week 4 Pre-Dose, RVT-501 0.5%, N 23

Row | Structure (SMILES) | subjects with measurable concentrations in plasma at one or more time points [2] [%] | Number of subjects with measurable concentrations, (%) [2, 5] | Plasma concentration, Max [2, 5] [ng/mL] | Plasma concentration, Mean [2, 5] [ng/mL] | Plasma concentration, Median [2, 5] [ng/mL] | Plasma concentration, Min [2, 5] [ng/mL] | Number of subjects with measurable concentrations, (%) [2, 6] | Plasma concentration, Max [2, 6] [ng/mL] | Plasma concentration, Mean [2, 6] [ng/mL] | Plasma concentration, Median [2, 6] [ng/mL] | Plasma concentration, Min [2, 6] [ng/mL] | Number of subjects with measurable concentrations, (%) [2, 7] | Plasma concentration, Max [2, 7] [ng/mL] | Plasma concentration, Mean [2, 7] [ng/mL] | Plasma concentration, Median [2, 7] [ng/mL] | Plasma concentration, Min [2, 7] [ng/mL] | Number of subjects with measurable concentrations, (%) [2, 8] | Plasma concentration, Max [2, 8] [ng/mL] | Plasma concentration, Mean [2, 8] [ng/mL] | Plasma concentration, Median [2, 8] [ng/mL] | other results
1 | CNc1nc(-c2cccc(NC(=O)c3ccc(C(=O)OC)cc3)c2)c2cc(OC)c(OC)cc2n1 [RVT-501, methyl N-[3-(6,7-dimethoxy-2-methylaminoquinazolin-4-yl)phenyl]terephthalamic acid] | 40 | (24.0) % | 1860.00 | 102.92 | 0.0 | 0 | (32.0) % | 1470.00 | 62.16 | 0.0 | 0 | (24.0) % | 147.00 | 6.00 | 0.0 | 0 | (13.0) % | 0.45 | 0.05 | 0.0 | highest plasma concentration of RVT-501 ([1]; RVT-501 0.2% group, Week 4): 1.23 ng/mL; plasma RVT-501 concentration, Subject 18014 (adolescent) ([1]; RVT-501 0.2% group, Week 4, 2 hours post-dose): 1.20 ng/mL; plasma RVT-501 concentration, Subject 18014 (adolescent) ([1]; RVT-501 0.2% group, Week 4 pre-dose): 1.23 ng/mL; plasma concentration of RVT-501 ([1]; Week 1 pre-dose, all treatment groups, LLQ): < 1.00 ng/mL; systemic absorption ([1]; topical 0.2% and 0.5% BID): minimal to no systemic absorption; mean plasma concentration of RVT-501 ([2]; Week 1, 3 hours post-dose): 102.92 ng/mL; plasma level of RVT-501, Subject 03002 ([2]; Week 1, 3 hours post-dose): 710.0 ng/mL; mean plasma concentration of RVT-501 ([2]; Week 1, 7 hours post-dose): 62.16 ng/mL; plasma level of RVT-501, Subject 03001 ([2]; Week 1, 7 hours post-dose): 80.3 ng/mL; mean plasma concentration of RVT-501 ([2]; Week 1 pre-dose): 6.00 ng/mL; plasma level of RVT-501, Subject 03007 ([2]; Week 1 pre-dose): 147.0 ng/mL; subjects with concentrations of RVT-501 ≥80 ng/ml ([2]; Week 1 visit): 16%; Plasma concentration, Min [2, 8]: 0 ng/mL; highest plasma concentration of RVT-501 ([2]; human, in vivo): 1 860 ng/mL; average B/P of two levels [3]: 0.679; blood plasma ratio at 3 ng/mL [3]: 0.69; blood plasma ratio at 160 ng/mL [3]: 0.669; maximum level in blood (DBS) [4]: 1.65 ng/mL
2 | CNc1nc(-c2cccc(NC(=O)c3ccc(C(=O)O)cc3)c2)c2cc(OC)c(OC)cc2n1 [Formulation M11, 4-((3-(6,7-dimethoxy-2-(methylamino)quinazolin-4-yl)phenyl)carbamoyl)benzoic acid] | 40 | (28.0) % | 8.58 | 0.61 | 0.0 | 0 | (28.0) % | 23.40 | 1.24 | 0.0 | 0 | (24.0) % | 7.64 | 0.57 | 0.0 | 0 | (17.4) % | 1.07 | 0.12 | 0.0 | plasma M11 concentration, Subject 18014 (adolescent) ([1]; RVT-501 0.2% group, Week 1 pre-dose): 1.27 ng/mL; plasma M11 concentration, Subject 03005 (adult) ([1]; RVT-501 0.5% group, Week 1 pre-dose): 1.60 ng/mL; plasma M11 concentration, Subject 09003 (adult) ([1]; RVT-501 0.5% group, Week 4 pre-dose): 1.09 ng/mL; highest plasma concentration of M11 metabolite ([1]; all groups, Weeks 1 and 4): 1.60 ng/mL; highest plasma concentration of M11 (Subject 03007) ([2]; Week 1, 7 hours post-dose): 23.4 ng/mL and 23.40 ng/mL; mean plasma concentration of the M11 metabolite ([2]; Week 1, 7 hours post-dose): 1.24 ng/mL; Plasma concentration, Min [2, 8]: 0 ng/mL; mean plasma concentration of the M11 metabolite ([2]; all time points except 7 hours post-dose at Week 1): below 1 ng/ml; average B/P of two levels [3]: 0.584; blood plasma ratio at 3 ng/mL [3]: 0.594; blood plasma ratio at 160 ng/mL [3]: 0.574; maximum level in blood (DBS) [4]: below the LLOQ
